In patent US4008223A, “6-Aza-3H-1,4-benzodiazepines” (Deutsche Gold- und Silber-Scheideanstalt vormals Roessler, priority 1971, dated 1977):

How the values were obtained:
[1] = tested on: mice; assay: Cardiazol shock (anticonvulsive / anxiolytic effect); format: in vivo; details: Mus musculus, 1 h, oral, one hour before 150 mg/kg s.c. Cardiazol, 50% of animals with marked anticonvulsive effect
Excerpt: The compounds of the present invention have a pronounced anxiolytic activity, i.e., they relieve or reduce anxiety. Such activity naturally cannot be measured directly in animals. […] A method for testing whether a compound has anticonvulsive properties and also therewith is anxiolytically active is the Cardiazol-Shock Method.
In order to compare the therapeutic value of the compounds of the present invention with the most closely related compounds in Littell U.S. Pat. No. 3,314,941 and Reeder U.S. Pat. No. 3,371,085 tests were conducted comparing the properties of the compounds of the present application and the Littell and Reeder patents in regard to anxiolytic effect (tested by Cardiazol-Shock).
The Cardiazol shock procedure was carried out according to the method of F.M. Berger et al in J. Pharmacol. Exper. Therap. Vol. 116, pages 337-342 (1956). With mice the subcutaneous injection of 150 mg/kg of Cardiazol first results in short lasting spasms, then long lasting and strong spasms and finally results in the death of all of the animals within 10 to 15 minutes. By the oral administration of the anticonvulsive acting test materials at various dosages one hour prior to the administration of the Cardiazol, the 100% lethal effect of the Cardiazol is reduced depending on the dosage. From the percentage of surviving animals in the individual test groups there was plotted graphically the dosage-effect line and from this the ED50 value was ascertained.

[2] = rotating rod test (ataxic effect); format: in vivo, mice; details: mouse, rotating rod test; mice; oral; 50% of animals show a typical ataxic effect; read-out: ED50, ataxic effect (rotating rod)
Excerpt: (§1) Furthermore, there is given in this table the ataxic activity. The ratio of ataxic activity to the anxiolytic activity is of the greatest significance in using a material as an anxiolytic agent. This quotient should be as large as possible since an ataxic activity is undesirable. Ataxic activity means that the coordination of the muscular movements is disturbed -- ataxic disturbance of the muscular coordination. This means at the dosage at which a marked anxiolytic activity is present there should not be found a noteworthy ataxice. The toxicity, in case the data exists above the ataxic activity, is no longer important since the amount which is toxic is always considerably higher than the amount at which 50% (ED50) of the animals have an ataxic effect. The ataxic effect was measured on mice on the pattern of the rotating rod.
(§2) In the rotating rod test the animals (mice) were firest placed on a rotating rod 15 minutes after the application of the test material and then were placed on the rotating rod every 15 minutes and the animals which fell down within 2 minutes measured positive. From the number of animals which fell down expressed in per cent there were drawn time-effect curves and the areas defined by it entered as percent effect in a probability network, the dosage-effect-line prepared and the ED50 read off. The ED50 mg/kg body weight of the mouse again specifies the dosage at which 50% of all the animals show a typical ataxic effect.

[3] = tested on: mice; assay: rotating rod test (ataxic effect); format: in vivo; details: quotient of ED50 ataxia / ED50 Cardiazol shock; should be as large as possible
Excerpt: as §1, §2

[4] = First Int. Pharmacological Meeting, Vol. 7, pages 311 et seq.; cited from earlier work
[5] = literature; cited from earlier work
[6] = on introduction of p-chlorine and alpha-methyl; literature; cited from earlier work

Structure (SMILES)	ED50 [1] [mg/kg]	TD50 [2] [mg/kg]	ratio of ataxic activity to the anxiolytic activity [3]	stimulating activity [4]	antihistamine activity [5]	anticholinergic activity [6]
O=C1CN=C(c2ccccc2)c2nc(Cl)ccc2N1CC1CC1 [Example 19]	9.75	75	7.7	–	–	–
CN1C(=O)CN=C(c2ccccc2)c2nc(Cl)ccc21 [Example 17, 1-Methyl-5-phenyl-6-aza-7-chloro-1,2-dihydro-3H-1,4-benzodiazepinone-(2)]	4.2	26	6.2	–	–	–
O=C1CN=C(c2ccccc2)c2nc(Cl)ccc2N1 [Example 1, 5-Phenyl-6-aza-7-chloro-1,2-dihydro-3H-1,4-benzodiazepinone-(2)]	6.3	72	11.4	–	–	–
CC(NN)c1ccccc1 (stereo not drawn) [alpha phenyl-ethyl hydrazine]	–	–	–	strong stimulating activity	–	–
CN(C)CCOC(C)(c1ccccc1)c1ccc(Cl)cc1 (stereo not shown) [chlorphenoxamine]	–	–	–	–	reduced	strengthening
O=C(O)CCC(=O)OC1N=C(c2ccccc2Cl)c2nc(Cl)ccc2NC1=O (stereo not shown) [Example 12]	7.4	100	13.5	–	–	–
O=C1CN=C(c2ccccc2Cl)c2nc(Cl)ccc2N1 [Example 6, 5-(o-Chlorophenyl)-6-aza-7-chloro-1,2-dihydro-3H-1,4-benzodiazepinone-(2)]	2.72	45	16.5	–	–	–
O=C1Nc2ccc(Cl)nc2C(c2ccccc2Cl)=NC1O (stereo not shown) [Example 13, 3-Hydroxy-5-o-chlorophenyl-6-aza-7-chloro-1,2-dihydro-3H-1,4-benzodiazepinone-(2)]	2.4	36	15.0	–	–	–
CN1C(=S)CN=C(c2ccccc2Cl)c2nc(Cl)ccc21 [Example 24, 1-Methyl-5-(o-chlorophenyl)-6-aza-7-chloro-1,2-dihydro-3H-1,4-benzodiazepinthione-(2)]	3.3	39	12.5	–	–	–
CC(=O)OC1N=C(c2ccccc2Cl)c2nc(Cl)ccc2N(C(C)=O)C1=O (stereo not shown) [Example 15, 1-Acetyl-3-acetoxy-5-(o-chlorophenyl)-6-aza-7-chloro-1,2-dihydro-3H-1,4-benzodiazepinone-(2)]	15	100	6.7	–	–	–
CC1N=C(c2ccccc2)c2nc(Cl)ccc2NC1=O (racemic) [Example 4, 3-Methyl-5-phenyl-6-aza-7-chloro-1,2-dihydro-3H-1,4-benzodiazepinone-(2)]	18	78	4.3	–	–	–
CN1C(=O)CN=C(c2ccccc2Cl)c2nc(Cl)ccc21 [Example 21, 1-Methyl-5-(o-chlorophenyl)-6-aza-7-chloro-1,2-dihydro-3H-1,4-benzodiazepinone-(2)]	0.98	10	10.2	–	–	–
CN(C)CCCN1c2ccccc2Sc2ccc(Cl)cc21 [Chlorpromazine]	–	–	–	–	practically no antihistamine activity	–
C=CCN1C(=O)CN=C(c2ccccc2)c2nc(Cl)ccc21 [Example 18, 1-Allyl-5-phenyl-6-aza-7-chloro-1,2-dihydro-3H-1,4-benzodiazepinone-(2)]	11	90	8.2	–	–	–
O=C1CN=C(c2ccccc2F)c2nc(Cl)ccc2N1 [Example 10, 5-(-Fluorophenyl)-6-aza-7-chloro-1,2-dihydro-3H-1,4-benzodiazepinone-(2)]	1.63	17	10.4	–	–	–
CN1C(=O)CN=C(c2ccccc2F)c2nc(Cl)ccc21 [Example 9, 1-Methyl-5-(o-fluorophenyl)-6-aza-7-chloro-1,2-dihydro-3H-1,4-benzodiazepinone-(2)]	1.58	9.7	6.1	–	–	–
